Test results as given in US20250270170A1, “2,3-DIMETHOXY-5-METHYL-1,4-BENZOQUINONE ALKYL ALCOHOL DERIVATIVE AND USE THEREOF” (BEIJING ANJIANXI BIO-MEDICAL TECHNOLOGY CO., LTD., priority 2021, published 2025).
Marks after values point to notes of the source that are not given here.

Assays:
[1] = test system: human colorectal cancer HT29 transplanted tumor; experiment: Example 10: tumor growth in HT-29 transplanted tumor model; assay type: in vivo, nude mice; conditions: for Mean tumor volume ± SE / tumor growth inhibition rate: HT-29 model, DDP 5 mg/kg i.p. QW × 3, R01 18 mg/kg i.g. BID × 28
Description: The human colorectal cancer cell lines HT-29 were obtained from the Cell Bank of the Type Culture Collection Committee of Chinese Academy of Sciences (CAS, cryopreserved in liquid nitrogen in this assay).
HT-29 cells were routinely cultured in a McCoy […] containing 10% fetal bovine serum under culture conditions of 37° C. and 5% CO2. The cells were digested with 0.25% trypsin, and passaged according to the cell growth conditions with a passaging ratio of 1:3 to 1:4.
On D1 of the assay, the HT-29 cells in the logarithmic growth phase were collected, counted and resuspended in serum-free McCoy, and the cell concentration was adjusted to 4×10^7 cells/mL. The cells were pipetted with a pipette to disperse them evenly, and the cells were put into a 50-mL centrifuge tube, which was placed in an ice box. A 1-mL syringe was used to draw the cell suspension, which was injected subcutaneously into the axilla of the front right limb of a nude mouse. Each animal was inoculated with 100 μL (4×10^6 cells/mouse) to establish a HT-29 transplanted tumor model in nude mice. After the inoculation, the animal status and tumor growth were regularly observed. On D12, the tumor diameter was measured using an electronic vernier caliper. The data were input into an Excel spreadsheet to calculate the tumor volume. Tumor-bearing mice in good health and with similar tumor volumes (103 to 179 mm^3) were selected and divided into groups using randomized block method. After the start of the assay, the tumor diameter was measured regularly, the tumor volume was calculated, and the animal body weight was also weighed and recorded.

[2] = Example 3: body weight of NCI-N87 tumor-bearing nude mice; assay type: in vivo, BALB/c nude mice
Description: The NCI-N87 cells in the logarithmic growth phase were collected, counted and resuspended in a serum-free RPMI-1640 medium, and the cell concentration was adjusted to 5×10^7 cells/mL. The cells were pipetted with a pipette to disperse them evenly, and the cells were put into a 50-mL centrifuge tube, which was placed in an ice box. A 1-mL syringe was used to draw the cell suspension, which was injected subcutaneously into the axilla of the front right limb of a nude mouse. Each animal was inoculated with 100 μL (5×10^6 cells/mouse) to establish an NCI-N87 transplanted tumor model in nude mice. After the inoculation, the animal status and tumor growth were regularly observed, and the tumor diameter was measured using an electronic vernier caliper. The data were input into an Excel spreadsheet to calculate the tumor volume. When the tumor volume reached 100 to 300 mm^3, 72 animals in good health and with similar tumor volumes were selected and divided into 9 groups (n=8) using randomized block method. The day of grouping was regarded as the first day of the assay (D1). After the start of the assay, the tumor diameter was measured twice a week, the tumor volume was calculated, and the animal body weight was also weighed and recorded. [table] The calculation formula of animal weight loss rate is: wherein BWt represents the animal body weight measured each time during the administration period; BWinitial represents the animal body weight when being grouped for administration. The assay data were calculated and processed statistically using Microsoft Office Excel 2007 software. Unless otherwise specified, the data were expressed as mean±standard error (Mean±SE), and t-test was used for comparison between two groups.

[3] = Example 7: serum UREA content; assay type: in vivo, nude mice; conditions: mouse, in vivo, po, 16 mg/kg
[4] = test system: human gastric cancer NCI-N87 transplanted tumor; experiment: Example 7: tumor growth in NCI-N87 transplanted tumor model, alone and combined with DDP; assay type: in vivo, nude mice; conditions: for Mean tumor volume / tumor growth inhibition rate (TGI): R01 16 mg/kg PO QD×32

Q: Which results are given for `COC1=C(OC)C(=O)C(CCCCCCCCCCOC(=O)Cc2c(C)n(C(=O)c3ccc(Cl)cc3)c3ccc(OC)cc23)=C(C)C1=O` [compound of formula (I)]?
A: Mean tumor volume ± SE ([1]; D 12 (grouping)): 134 ± 9 mm^3; Mean tumor volume ± SE ([1]; D 15): 178 ± 7 mm^3; tumor growth inhibition rate ([1]; D 15): (40%); Mean tumor volume ± SE ([1]; D 19): 280 ± 9** mm^3; tumor growth inhibition rate ([1]; D 19): (42%); Mean tumor volume ± SE ([1]; D 22): 393 ± 19** mm^3; tumor growth inhibition rate ([1]; D 22): (34%); Mean tumor volume ± SE ([1]; D 26): 532 ± 31** mm^3; tumor growth inhibition rate ([1]; D 26): (31%); Mean tumor volume ± SE ([1]; D 29): 631 ± 40** mm^3; tumor growth inhibition rate ([1]; D 29): (38%); Mean tumor volume ± SE ([1]; D 33): 832 ± 59** mm^3; tumor growth inhibition rate ([1]; D 33): (36%); Mean tumor volume ± SE ([1]; D 36): 903 ± 73** mm^3; tumor growth inhibition rate ([1]; D 36): (37%); Mean tumor volume ± SE ([1]; D 40): 1070 ± 94** mm^3; tumor growth inhibition rate ([1]; D 40): (33%); anti-tumor effect in combination with cisplatin (summary) ([1]; HT-29 transplanted tumor model in nude mice): synergistic anti-tumor effect; Mean animal body weight ([2]; D13, 2 mg/kg i.g. BID×28): 18.3 ± 0.4 g; Mean animal body weight ([2]; D13, 6 mg/kg i.g. BID×28): 17.6 ± 0.3 g; Mean animal body weight ([2]; D13, 18 mg/kg i.g. BID×28): 17.9 ± 0.5 g; Mean animal body weight ([2]; D16, 2 mg/kg i.g. BID×28): 18.2 ± 0.5 g; body weight loss rate ([2]; D16, 2 mg/kg i.g. BID×28): (0.41%); Mean animal body weight ([2]; D16, 6 mg/kg i.g. BID×28): 17.6 ± 0.3 g; body weight loss rate ([2]; D16, 6 mg/kg i.g. BID×28): (0.28%); Mean animal body weight ([2]; D16, 18 mg/kg i.g. BID×28): 17.7 ± 0.4 g; body weight loss rate ([2]; D16, 18 mg/kg i.g. BID×28): (1.0%); Mean animal body weight ([2]; D20, 2 mg/kg i.g. BID×28): 18.2 ± 0.4 g; body weight loss rate ([2]; D20, 2 mg/kg i.g. BID×28): (0.27%); Mean animal body weight ([2]; D20, 6 mg/kg i.g. BID×28): 17.5 ± 0.4 g; body weight loss rate ([2]; D20, 6 mg/kg i.g. BID×28): (0.50%); Mean animal body weight ([2]; D20, 18 mg/kg i.g. BID×28): 17.8 ± 0.3 g; body weight loss rate ([2]; D20, 18 mg/kg i.g. BID×28): (0.56%); Mean animal body weight ([2]; D23, 2 mg/kg i.g. BID×28): 18.5 ± 0.5 g; body weight loss rate ([2]; D23, 2 mg/kg i.g. BID×28): (−1.0%); Mean animal body weight ([2]; D23, 6 mg/kg i.g. BID×28): 18.1 ± 0.5 g; body weight loss rate ([2]; D23, 6 mg/kg i.g. BID×28): (−2.7%); Mean animal body weight ([2]; D23, 18 mg/kg i.g. BID×28): 18.0 ± 0.4 g; body weight loss rate ([2]; D23, 18 mg/kg i.g. BID×28): (−0.42%); Mean animal body weight ([2]; D27, 2 mg/kg i.g. BID×28): 18.7 ± 0.5 g; body weight loss rate ([2]; D27, 2 mg/kg i.g. BID×28): (−2.5%); Mean animal body weight ([2]; D27, 6 mg/kg i.g. BID×28): 18.3 ± 0.5 g; body weight loss rate ([2]; D27, 6 mg/kg i.g. BID×28): (−3.7%); Mean animal body weight ([2]; D27, 18 mg/kg i.g. BID×28): 18.1 ± 0.3 g; body weight loss rate ([2]; D27, 18 mg/kg i.g. BID×28): (−1.0%); Mean animal body weight ([2]; D30, 2 mg/kg i.g. BID×28): 18.9 ± 0.4 g; body weight loss rate ([2]; D30, 2 mg/kg i.g. BID×28): (−3.4%); Mean animal body weight ([2]; D30, 6 mg/kg i.g. BID×28): 18.3 ± 0.4 g; body weight loss rate ([2]; D30, 6 mg/kg i.g. BID×28): (−4.0%); Mean animal body weight ([2]; D30, 18 mg/kg i.g. BID×28): 18.4 ± 0.4 g; body weight loss rate ([2]; D30, 18 mg/kg i.g. BID×28): (−2.7%); Mean animal body weight ([2]; D34, 2 mg/kg i.g. BID×28): 19.3 ± 0.5 g; body weight loss rate ([2]; D34, 2 mg/kg i.g. BID×28): (−5.8%); Mean animal body weight ([2]; D34, 6 mg/kg i.g. BID×28): 18.5 ± 0.4 g; body weight loss rate ([2]; D34, 6 mg/kg i.g. BID×28): (−5.1%); Mean animal body weight ([2]; D34, 18 mg/kg i.g. BID×28): 18.7 ± 0.4 g; body weight loss rate ([2]; D34, 18 mg/kg i.g. BID×28): (−4.3%); Mean animal body weight ([2]; D37, 2 mg/kg i.g. BID×28): 19.5 ± 0.5 g; body weight loss rate ([2]; D37, 2 mg/kg i.g. BID×28): (−6.5%); Mean animal body weight ([2]; D37, 6 mg/kg i.g. BID×28): 18.6 ± 0.4 g; body weight loss rate ([2]; D37, 6 mg/kg i.g. BID×28): (−5.8%); Mean animal body weight ([2]; D37, 18 mg/kg i.g. BID×28): 18.8 ± 0.4 g; body weight loss rate ([2]; D37, 18 mg/kg i.g. BID×28): (−4.8%); Mean animal body weight ([2]; D44, 2 mg/kg i.g. BID×28): 19.2 ± 0.6 g; body weight loss rate ([2]; D44, 2 mg/kg i.g. BID×28): (−5.2%); Mean animal body weight ([2]; D44, 6 mg/kg i.g. BID×28): 19.0 ± 0.5 g; body weight loss rate ([2]; D44, 6 mg/kg i.g. BID×28): (−8.0%); Mean animal body weight ([2]; D44, 18 mg/kg i.g. BID×28): 19.1 ± 0.4 g; body weight loss rate ([2]; D44, 18 mg/kg i.g. BID×28): (−6.9%); effect on body weight compared with blank control group ([2]; NCI-N87 tumor-bearing nude mice, summary of Table 6): no significant effect; Serum UREA content, Mean [3]: 7.83 mmol serum^−1; Mean tumor volume ([4]; D12): 155 ± 4 mm^3; Mean tumor volume ([4]; D16): 200 ± 6** mm^3; tumor growth inhibition rate (TGI) ([4]; D16): 29%; Mean tumor volume ([4]; D19): 263 ± 14** mm^3; tumor growth inhibition rate (TGI) ([4]; D19): 27%; Mean tumor volume ([4]; D23): 336 ± 18** mm^3; tumor growth inhibition rate (TGI) ([4]; D23): 30%; Mean tumor volume ([4]; D26): 421 ± 26** mm^3; tumor growth inhibition rate (TGI) ([4]; D26): 33%; Mean tumor volume ([4]; D30): 509 ± 46** mm^3; tumor growth inhibition rate (TGI) ([4]; D30): 43%; Mean tumor volume ([4]; D33): 577 ± 52** mm^3; tumor growth inhibition rate (TGI) ([4]; D33): 45%; Mean tumor volume ([4]; D37): 681 ± 63** mm^3; tumor growth inhibition rate (TGI) ([4]; D37): 46%; Mean tumor volume ([4]; D40): 758 ± 74** mm^3; tumor growth inhibition rate (TGI) ([4]; D40): 47%; Mean tumor volume ([4]; D44): 871 ± 94** mm^3; tumor growth inhibition rate (TGI) ([4]; D44): 45%; effect on growth of the NCI-N87 transplanted tumor (summary) ([4]; R01 alone 16 mg/kg QD, combinations: R01 3, 6, 16 mg/kg (QD) with DDP): significant inhibitory effect
